We go through five compounds from patent publication US20260265329A1, “POLYPEPTIDE AND DERIVATIVE THEREOF, COMPOSITION, AND USE THEREOF” (HANGZHOU SCIWIND BIOSCIENCES CO., LTD., priority 2023, published 2026).

The target in the assay is T1, human amylin receptors (Homo sapiens, UniProt O60896+P30988).
T1 construct: host or cells: CHO-K1/Ga15/AMY3 cells, further stably transfected with a CRE-luciferase plasmid
T1 sequence (P30988 25-474): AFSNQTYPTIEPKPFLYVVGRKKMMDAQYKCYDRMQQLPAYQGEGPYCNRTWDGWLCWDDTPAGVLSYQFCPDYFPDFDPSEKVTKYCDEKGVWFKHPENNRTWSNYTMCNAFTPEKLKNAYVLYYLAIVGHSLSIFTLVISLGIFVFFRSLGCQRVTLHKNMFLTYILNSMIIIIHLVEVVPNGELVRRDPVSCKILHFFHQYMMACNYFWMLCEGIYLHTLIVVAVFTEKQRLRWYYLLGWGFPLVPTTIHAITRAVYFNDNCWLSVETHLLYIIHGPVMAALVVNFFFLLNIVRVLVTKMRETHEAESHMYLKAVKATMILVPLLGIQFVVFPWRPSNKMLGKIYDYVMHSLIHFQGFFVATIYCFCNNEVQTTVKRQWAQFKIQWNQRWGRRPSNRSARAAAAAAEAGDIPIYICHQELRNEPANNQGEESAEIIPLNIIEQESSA
T1 sequence (O60896 24-148 partner): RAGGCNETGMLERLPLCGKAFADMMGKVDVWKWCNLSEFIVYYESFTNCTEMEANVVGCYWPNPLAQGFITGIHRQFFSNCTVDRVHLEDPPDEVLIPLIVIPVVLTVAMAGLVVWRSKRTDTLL
In words: Luciferase assay in stably transfected amylin receptor/CRE-luc CHO cell line. In kind it is cell-based. The settings on record: for Relative activity: EC50 ratio of Cagrilintide to the compound, Cagrilintide 100%; for EC50: amylin receptor/CRE-luc CHO cells, 24 hours incubation, luminescence. An excerpt:
The objective of this assay is to test the potency of derivatives of polypeptides of the present application on human amylin receptors in vitro using a luciferase assay. Using the standard protocol, CHO-K1/Ga15/AMY3 cells (purchased from GenScript, with the calcitonin receptor and the receptor activity modifying peptide (RAMP) constructed already) were transfected with a plasmid containing a luciferase expression cassette driven by multiple copies of cAMP response elements (CREs). The cells were cultured in an F12 medium containing 200 μg/mL Zeocin, 2 μg/mL puromycin, 100 μg/mL hygromycin, and 400 μg/mL G418 to afford a stably transfected amylin receptor/CRE-luc cell line. The lyophilized powder from Example 1 was dissolved in 20 mM phosphate buffer solution with a pH of 7.0, and diluted in a growth medium (F12 culture medium containing 10% FBS) to give a derivative sample with an initial concentration of 10 nM, which was then subjected to a 5-fold serial dilution in the growth medium to obtain seven samples with concentrations between […]. In each well of a white 96-well plate, 50 μL of the tested sample solution was added with a corresponding concentration. The stably transfected amylin receptor/CRE-luc CHO cells were resuspended in the growth medium at a certain density, and 50 μL of the cell suspension was added at a density of about 20000 cells per well to the white 96-well plate containing the tested sample solution. After incubation of 24 hours at 37° C. and 5% CO2, 100 μL of a Luciferase substrate was added to each well, incubated for 3 minutes, and finally was tested for luminescence on SpectraMax L (Molecular Devices) with the software SoftMax Pro 7.0.3 GxP.

Starred links: 1 amine or outer side, 2 acyl side, 3 side chain; linkers in the order of their positions; H or OH if unused. Non-standard residues stand in square brackets, D forms with d. Residues, ends and D or L forms follow the SMILES beside them. *: point of attachment. C20 diacid = O=C(O)CCCCCCCCCCCCCCCCCCC(=O)*; C18 diacid = O=C(O)CCCCCCCCCCCCCCCCC(=O)*; γGlu = O=C(O)[C@H](CCC(=O)[*:2])N[*:1]; Trx = NC[C@H]1CC[C@H](C(=O)O)CC1; AEEA = NCCOCCOCC(=O)O

The EC50 is the concentration at which the effect is half-maximal.

`CC[C@H](C)[C@H](NC(=O)[C@H](CC(=O)O)NC(=O)[C@H](CCCNC(=N)N)NC(=O)[C@H](CC(=O)O)NC(=O)[C@H](CCCNC(=N)N)NC(=O)[C@H](CC(=O)O)NC(=O)[C@@H](NC(=O)[C@H](Cc1ccccc1)NC(=O)[C@H](Cc1c[nH]cn1)NC(=O)[C@H](CCCNC(=N)N)NC(=O)[C@H](CC(C)C)NC(=O)[C@H](Cc1ccccc1)NC(=O)[C@H](CC(=O)O)NC(=O)[C@H](C)NC(=O)[C@H](CC(C)C)NC(=O)[C@H](CCCNC(=N)N)NC(=O)[C@H](CCC(N)=O)NC(=O)[C@@H](NC(=O)[C@H](C)NC(=O)[C@H](C)NC(=O)[C@@H](NC(=O)[C@H](CO)NC(=O)[C@H](CC(C)C)NC(=O)[C@H](CCC(N)=O)NC(=O)[C@H](CO)NC(=O)[C@H](C)NC(=O)COCCOCCNC(=O)COCCOCCNC(=O)[C@H](CCC(=O)O)NC(=O)CCCCCCCCCCCCCCCCCCC(=O)O)[C@@H](C)O)[C@@H](C)O)[C@@H](C)O)C(=O)N[C@@H](CC(C)C)C(=O)N1CCC[C@H]1C(=O)N1CCC[C@H]1C(=O)N[C@H](C(=O)N[C@@H](CC(N)=O)C(=O)N[C@H](C(=O)NCC(=O)N[C@@H](CO)C(=O)N[C@@H](CC(N)=O)C(=O)N[C@H](C(=O)N1CCC[C@H]1C(N)=O)[C@@H](C)O)C(C)C)[C@@H](C)O` [M17] ({C20 diacid}-E[AEEA][AEEA]ASQLSTAATQRLADFLRHFTDRDRDILPPTNVGSNTP-NH2): the Relative activity was 94% and the EC50 worked out at 0.026 nM. In the same order, the values of `CC[C@H](C)[C@H](NC(=O)[C@H](CC(=O)O)NC(=O)[C@H](CCCNC(=N)N)NC(=O)[C@H](CC(=O)O)NC(=O)[C@H](CCCNC(=N)N)NC(=O)[C@H](CC(=O)O)NC(=O)[C@@H](NC(=O)[C@H](Cc1ccccc1)NC(=O)[C@H](Cc1c[nH]cn1)NC(=O)[C@H](CCCNC(=N)N)NC(=O)[C@H](CC(C)C)NC(=O)[C@H](Cc1ccccc1)NC(=O)[C@H](CC(=O)O)NC(=O)[C@H](C)NC(=O)[C@H](CC(C)C)NC(=O)[C@H](CCCNC(=N)N)NC(=O)[C@H](CCC(N)=O)NC(=O)[C@@H](NC(=O)[C@H](C)NC(=O)[C@H](C)NC(=O)[C@@H](NC(=O)[C@H](CO)NC(=O)[C@H](CC(C)C)NC(=O)[C@H](CCC(N)=O)NC(=O)[C@H](CO)NC(=O)[C@H](C)NC(=O)[C@H](CC(=O)O)NC(=O)CCCCCCCCCCCCCCCCCCC(=O)O)[C@@H](C)O)[C@@H](C)O)[C@@H](C)O)C(=O)N[C@@H](CC(C)C)C(=O)N1CCC[C@H]1C(=O)N1CCC[C@H]1C(=O)N[C@H](C(=O)N[C@@H](CC(N)=O)C(=O)N[C@H](C(=O)NCC(=O)N[C@@H](CO)C(=O)N[C@@H](CC(N)=O)C(=O)N[C@H](C(=O)N1CCC[C@H]1C(N)=O)[C@@H](C)O)C(C)C)[C@@H](C)O` [M13] ({C20 diacid}-DASQLSTAATQRLADFLRHFTDRDRDILPPTNVGSNTP-NH2) are 78% and 0.034 nM. In the case of `CC[C@H](C)[C@H](NC(=O)[C@H](CC(=O)O)NC(=O)[C@H](CCCNC(=N)N)NC(=O)[C@H](CC(=O)O)NC(=O)[C@H](CCCNC(=N)N)NC(=O)[C@H](CC(=O)O)NC(=O)[C@@H](NC(=O)[C@H](Cc1ccccc1)NC(=O)[C@H](Cc1c[nH]cn1)NC(=O)[C@H](CCCNC(=N)N)NC(=O)[C@H](CC(C)C)NC(=O)[C@H](Cc1ccccc1)NC(=O)[C@H](CC(=O)O)NC(=O)[C@H](C)NC(=O)[C@H](CC(C)C)NC(=O)[C@H](CCCNC(=N)N)NC(=O)[C@H](CCC(N)=O)NC(=O)[C@@H](NC(=O)[C@H](C)NC(=O)[C@H](C)NC(=O)[C@@H](NC(=O)[C@H](CO)NC(=O)[C@H](CC(C)C)NC(=O)[C@H](CCC(N)=O)NC(=O)[C@H](CO)NC(=O)[C@H](C)NC(=O)COCCOCCNC(=O)COCCOCCNC(=O)CC[C@H](NC(=O)CCCCCCCCCCCCCCCCCCC(=O)O)C(=O)O)[C@@H](C)O)[C@@H](C)O)[C@@H](C)O)C(=O)N[C@@H](CC(C)C)C(=O)N1CCC[C@H]1C(=O)N1CCC[C@H]1C(=O)N[C@H](C(=O)N[C@@H](CC(N)=O)C(=O)N[C@H](C(=O)NCC(=O)N[C@@H](CO)C(=O)N[C@@H](CC(N)=O)C(=O)N[C@H](C(=O)N1CCC[C@H]1C(N)=O)[C@@H](C)O)C(C)C)[C@@H](C)O` [M16] ({C20 diacid-γGlu-AEEA-AEEA}-ASQLSTAATQRLADFLRHFTDRDRDILPPTNVGSNTP-NH2), the Relative activity was 58% and the response was half-maximal at 0.042 nM (EC50).

For `CC[C@H](C)[C@H](NC(=O)[C@H](CC(=O)O)NC(=O)[C@H](CCCNC(=N)N)NC(=O)[C@H](CC(=O)O)NC(=O)[C@H](CCCNC(=N)N)NC(=O)[C@H](CC(=O)O)NC(=O)[C@@H](NC(=O)[C@H](Cc1ccccc1)NC(=O)[C@H](Cc1c[nH]cn1)NC(=O)[C@H](CCCNC(=N)N)NC(=O)[C@H](CC(C)C)NC(=O)[C@H](Cc1ccccc1)NC(=O)[C@H](CC(=O)O)NC(=O)[C@H](C)NC(=O)[C@H](CC(C)C)NC(=O)[C@H](CCCNC(=N)N)NC(=O)[C@H](CCC(N)=O)NC(=O)[C@@H](NC(=O)[C@H](C)NC(=O)[C@H](C)NC(=O)[C@@H](NC(=O)[C@H](CO)NC(=O)[C@H](CC(C)C)NC(=O)[C@H](CCC(N)=O)NC(=O)[C@H](CO)NC(=O)[C@H](C)NC(=O)CC[C@H](NC(=O)CCCCCCCCCCCCCCCCC(=O)O)C(=O)O)[C@@H](C)O)[C@@H](C)O)[C@@H](C)O)C(=O)N[C@@H](CC(C)C)C(=O)N1CCC[C@H]1C(=O)N1CCC[C@H]1C(=O)N[C@H](C(=O)N[C@@H](CC(N)=O)C(=O)N[C@H](C(=O)NCC(=O)N[C@@H](CO)C(=O)N[C@@H](CC(N)=O)C(=O)N[C@H](C(=O)N1CCC[C@H]1C(N)=O)[C@@H](C)O)C(C)C)[C@@H](C)O` [M22] ({C18 diacid-γGlu}-ASQLSTAATQRLADFLRHFTDRDRDILPPTNVGSNTP-NH2), the Relative activity is 198% and the EC50 amounted to 0.016 nM. Consider `CC[C@H](C)[C@H](NC(=O)[C@H](CC(=O)O)NC(=O)[C@H](CCCNC(=N)N)NC(=O)[C@H](CC(=O)O)NC(=O)[C@H](CCCNC(=N)N)NC(=O)[C@H](CC(=O)O)NC(=O)[C@@H](NC(=O)[C@H](Cc1ccccc1)NC(=O)[C@H](Cc1c[nH]cn1)NC(=O)[C@H](CCCNC(=N)N)NC(=O)[C@H](CC(C)C)NC(=O)[C@H](Cc1ccccc1)NC(=O)[C@H](CC(=O)O)NC(=O)[C@H](C)NC(=O)[C@H](CC(C)C)NC(=O)[C@H](CCCNC(=N)N)NC(=O)[C@H](CCC(N)=O)NC(=O)[C@@H](NC(=O)[C@H](C)NC(=O)[C@H](C)NC(=O)[C@@H](NC(=O)[C@H](CO)NC(=O)[C@H](CC(C)C)NC(=O)[C@H](CCC(N)=O)NC(=O)[C@H](CO)NC(=O)[C@H](C)NC(=O)[C@H]1CC[C@H](CNC(=O)CCCCCCCCCCCCCCCCCCC(=O)O)CC1)[C@@H](C)O)[C@@H](C)O)[C@@H](C)O)C(=O)N[C@@H](CC(C)C)C(=O)N1CCC[C@H]1C(=O)N1CCC[C@H]1C(=O)N[C@H](C(=O)N[C@@H](CC(N)=O)C(=O)N[C@H](C(=O)NCC(=O)N[C@@H](CO)C(=O)N[C@@H](CC(N)=O)C(=O)N[C@H](C(=O)N1CCC[C@H]1C(N)=O)[C@@H](C)O)C(C)C)[C@@H](C)O` [M14] ({C20 diacid-Trx}-ASQLSTAATQRLADFLRHFTDRDRDILPPTNVGSNTP-NH2), for which the Relative activity is recorded as 136%.
